Test results reported in patent US5294617A, “Angiotensin II receptor blocking 2,3,6 substituted quinazolinones” (American Cyanamid Company, priority 1993, dated 1994).

Molecular target: T1, Angiotensin II Receptor (Bos taurus, UniProt P25104)
T1 construct: The brownish tissue forming the adrenal cortex is scraped off and finely minced with scissors before homogenization; tissue local slaughter house (Maxwell--Cohen); host or cells: beef adrenal cortex, microsomal membranes (100,000×g pellet)
T1 sequence (P25104 1-359): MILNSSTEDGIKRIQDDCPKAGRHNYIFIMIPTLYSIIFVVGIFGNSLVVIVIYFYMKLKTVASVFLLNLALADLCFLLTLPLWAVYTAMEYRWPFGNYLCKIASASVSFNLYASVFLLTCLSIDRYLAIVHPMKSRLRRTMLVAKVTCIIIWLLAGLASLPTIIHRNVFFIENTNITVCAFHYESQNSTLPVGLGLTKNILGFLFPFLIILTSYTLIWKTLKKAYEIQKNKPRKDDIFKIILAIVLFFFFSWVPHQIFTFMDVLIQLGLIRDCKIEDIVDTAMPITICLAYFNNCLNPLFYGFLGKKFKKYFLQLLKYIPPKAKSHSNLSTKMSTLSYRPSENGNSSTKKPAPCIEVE
Assay: Receptor Binding Assay: binding of [125I](Sar1,Ile8)AngII to beef adrenal cortex membranes
Text: [^125 I](Sar^1,Ile^8)AngII, S.A. 2200 Ci/mmole, is purchased from Dupont (NEN®, Boston, Mass.). All unlabeled AngII analogs, Dimethylsulfoxide (DMSO), nucleotides, bovine serum albumin (BSA) are purchased from Sigma Chemical Co., St. Louis, Mo. U.S.A.
Approximately sixteen (16) to twenty (20) beef adrenal glands are processed as follows: fresh adrenal glands received on crushed ice are cleaned of fatty tissues and the tough membranes encapsulating the glands are removed and discarded. The brownish tissue forming the adrenal cortex is scraped off and finely minced with scissors before homogenization. Care is taken to avoid contamination with medullary tissue during dissection. The scraped cortices are suspended in twenty volumes of an ice-cold buffer medium consisting of 10 mM Tris.HCl (pH 7.4 at 22° C.) and containing 1.0 mM EDTA and 0.2M sucrose. Unless otherwise indicated, all subsequent operations are done at 4° C. […] The homogenate is centrifuged first at low speed (3,000×g) for 10 min. […] This P2 pellet is discarded and the liquid phase is carefully decanted off in clean centrifuge tubes and recentrifuged at high speed (100,000×g) for 60 min. The translucent final pellet is harvested and combined in a small volume (20-50.0 ml) of 50.0 mM Tris.HCl buffer, pH 7.2. […] The pelleted membrane is reconstituted in 50.0 mM Tris.HCl buffer containing 0.1 mM of phenylmethylsulfonyl fluoride (PMSF) to give approximately a protein concentration of 2.5 mg per ml of tissue suspension. The membrane preparation is finally aliquoted in 1.0 ml volumes and stored at -70° C. until use in the binding assays.
In competition studies, experimental compounds are diluted in dimethylsulfoxide (DMSO) and added in 20 ul to wells before the introduction of tissue membranes. […] Assays are performed in triplicate. The wells are left undisturbed for 60 min. at room temperature. […] The filters are removed from the filter grid and counted in a Parkard® Cobra Gamma Counter for 1 min. […] The binding data are analyzed by the non-linear interactive "LUNDON-1" program (LUNDON SOFTWARE Inc., Cleveland, Ohio U.S.A.).

How did the IC50 turn out when `CCCCc1nc2ccc([C@H]3C[C@H](CO)ON3C)cc2c(=O)n1Cc1ccc(-c2ccccc2-c2nnn[nH]2)cc1` (relative stereo) [Example 16, TRANS-2-butyl-6-[5-(hydroxymethyl)-2-methyl-3-isoxazolidinyl]-3-[[2'-(1H-tetrazol-5-yl)[1,1'-biphenyl]-4-yl]methyl]-4(3H)-quinazolinone] was run?
Its IC50 is 61 nM.

Which IC50 does the source give for `CCCCc1nc2ccc([C@@H]3C[C@H](CO)ON3C)cc2c(=O)n1Cc1ccc(-c2ccccc2-c2nn[nH]n2)cc1` (relative stereo) [Example 15, CIS-2-butyl-6-5-(hydroxymethyl)-2-methyl-3-isoxazolidinyl]-3-[[2'-(1H-tetrazol-5[1,1'-biphenyl]-4-yl]methyl]-4(3H)-quinazolinone] here?
Its IC50 is 43 nM.
